Measured values: patent US20060270591A1, “Androgen receptor coregulators” (priority 2002, published 2006)

Legend:
[1] = system: AR; assay: AR transactivation reporter assay (CAT/luciferase) (Example 3); assay type: cell-based, human
Method: 21. […] Further adding GAL-DBD (lane 1 and 2) or GAL-DBD-ARA70N with wild type (lane 3 and 4) or mutant (lane 5-8) FXXLF motifs to the cells. (B) Effect of wild type and mutant FXXLF motifs ARA70N on AR transactivation in COS-1 cells. […] 0.5 ng SV40-Renila Luciferase was used as an internal control. Relative luciferase activity was calculated by dual luciferase system.
411. Human prostate cancer DU145 and PC-3 cells were maintained in Dulbecco's Minimum Essential Medium (DMEM) containing penicillin (25 U/ml), streptomycin (25 μg/ml), and 5% fetal calf serum (FCS). Human LNCaP cells were maintained in RPMI containing penicillin (25 U/ml), streptomycin (25 μg/ml), and 10% FCS. Transfections were performed using the calcium phosphate precipitation method, as previously described (Dynlacht et al. (1991) Cell 66, 563-576). Briefly, 4×10^5 cells were plated on 60-mm dishes 24 hours before transfection, and the medium was changed to DMEM with 5% charcoal-dextran stripped FCS (CS-FBS) one hour before transfection. Transfection medium contained a constant amount of reporter plasmid and indicated amounts of pSG5-receptor, ARA70, or pCMX-GAL fusion construct using pSG5 as a carrier to provide equal amounts of transfected DNA. […] After another 24 hours, the cells were harvested for chloramphenicol transferase (CAT) or luciferase assays. At least three independent experiments were carried out in each case. Superfect (Qiagen) was used for transfection in LNCaP cells. The transfection conditions followed the manufacturer's protocol. Cell extracts were prepared and assayed for CAT or luciferase activity (Promega) and normalized against β-galactosidase or Renilla luciferase activity as indicated. All data were the mean±SD results from three to six independent experiments.

[2] = system: AR; assay: AR transactivation assay, MMTV-CAT reporter, transient transfection (Example 1); assay type: cell-based, human; conditions: DU145 cells; wild type AR; 1 nM DHT
Method: Human prostate cancer DU145 or PC3 cells, or human lung carcinoma cells NCI H1299 were grown in Dulbecco's minimal essential medium (DMEM) containing penicillin (25 U/ml), streptomycin (25˜g/ml), and 5% fetal calf serum (FCS). One hour before transfection, the medium was changed to DMEM with 5% charcoal-stripped FCS. […] A β-galactosidase expression plasmid, pCMV-β-gal, was used as an internal control for transfection efficiency.
The medium was changed 24 hr posttransfection and the cells treated with either steroid hormones or hydroxyflutamide, and cultured for an additional 24 hr. Cells were harvested and assayed for CAT activity after the cell lysates were normalized by using β-galactosidaseas an internal control. Chloramphenicol acetyltransferase (CA) activity was visualized by PhosphorImager (Molecular Dynamics) and quantitated by ImageQuant software (Molecular Dynamics).

[3] = molecular target: T1, GR (Homo sapiens, UniProt P04150); assay: GR transactivation reporter assay with SV; assay type: cell-based; design: expressed in transfected cells; host or cells: DU145, PC-3, HepG2; conditions: MMTV-Luc; compared to AR
T1 sequence (P04150 1-777): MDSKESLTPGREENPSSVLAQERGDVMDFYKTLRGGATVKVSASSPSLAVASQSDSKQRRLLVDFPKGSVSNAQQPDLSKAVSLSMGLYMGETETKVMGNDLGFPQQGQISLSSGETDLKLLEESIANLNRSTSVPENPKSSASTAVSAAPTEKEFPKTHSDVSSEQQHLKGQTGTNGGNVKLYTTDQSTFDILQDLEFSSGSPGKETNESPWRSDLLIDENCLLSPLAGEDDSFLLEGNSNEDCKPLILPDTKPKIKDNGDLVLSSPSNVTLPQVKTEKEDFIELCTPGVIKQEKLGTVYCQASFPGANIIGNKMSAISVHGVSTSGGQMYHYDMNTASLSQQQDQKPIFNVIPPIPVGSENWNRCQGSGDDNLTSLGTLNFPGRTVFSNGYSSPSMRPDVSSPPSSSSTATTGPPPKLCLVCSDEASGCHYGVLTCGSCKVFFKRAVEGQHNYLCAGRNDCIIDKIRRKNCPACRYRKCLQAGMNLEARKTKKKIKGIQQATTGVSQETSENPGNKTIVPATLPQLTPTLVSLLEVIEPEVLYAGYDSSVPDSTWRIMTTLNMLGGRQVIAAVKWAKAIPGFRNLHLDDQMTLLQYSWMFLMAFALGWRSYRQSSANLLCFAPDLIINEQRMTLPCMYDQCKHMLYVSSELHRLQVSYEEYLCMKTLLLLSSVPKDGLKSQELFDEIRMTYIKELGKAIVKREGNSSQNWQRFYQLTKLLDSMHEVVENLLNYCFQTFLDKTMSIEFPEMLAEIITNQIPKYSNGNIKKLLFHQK
Method: 42. […] (A) The interaction of SV with AR, GR, PPAR-γ and ER-α is tested in mammalian two-hybrid assay. One μg plasmids expressing Gal4(DBD)-AR, GR, PPAR-γ or ER-α was co-transfected with 4 μg plasmids expressing VP16 or VP16-SVn to COS-1 cells. […] The assay method was the same as described in FIG. 29. Relative activities of ligand treatment to EtOH treatment are shown. (B) The coactivation function of SV in different receptors was assayed using reporter gene study. MMTV-Luc, PPRE-Luc, ERE-Luc are the reporter genes for AR, GR, PPAR-γ, and ER-α respectively. Lanes 1, 5, 9 and 13 are regarded as 1 fold in each panel.
475. In AR transactivation activity assays, transfections were performed using SuperFect (Qiagen, Chatsworth, Calif.) following protocols described in manual provided by Qiagen. Briefly, cells were plated on 35 mm dishes and after 24 h were transfected using the SuperFect kit. The total DNA amount was adjusted to 2 μg with pSG5 or pEGFP vectors. The medium was changed to DMEM with 10% CD-FBS 2 h after transfection. After 24 h, the DMEM with 10% CD-FBS was changed again, and the cells were treated with various steroids. Cells were harvested after 24 h for dual-luciferase assay as described in protocol provided by Promega. At least three independent experiments were carried out in each case.

Sequence of AR (P10275 whole entry): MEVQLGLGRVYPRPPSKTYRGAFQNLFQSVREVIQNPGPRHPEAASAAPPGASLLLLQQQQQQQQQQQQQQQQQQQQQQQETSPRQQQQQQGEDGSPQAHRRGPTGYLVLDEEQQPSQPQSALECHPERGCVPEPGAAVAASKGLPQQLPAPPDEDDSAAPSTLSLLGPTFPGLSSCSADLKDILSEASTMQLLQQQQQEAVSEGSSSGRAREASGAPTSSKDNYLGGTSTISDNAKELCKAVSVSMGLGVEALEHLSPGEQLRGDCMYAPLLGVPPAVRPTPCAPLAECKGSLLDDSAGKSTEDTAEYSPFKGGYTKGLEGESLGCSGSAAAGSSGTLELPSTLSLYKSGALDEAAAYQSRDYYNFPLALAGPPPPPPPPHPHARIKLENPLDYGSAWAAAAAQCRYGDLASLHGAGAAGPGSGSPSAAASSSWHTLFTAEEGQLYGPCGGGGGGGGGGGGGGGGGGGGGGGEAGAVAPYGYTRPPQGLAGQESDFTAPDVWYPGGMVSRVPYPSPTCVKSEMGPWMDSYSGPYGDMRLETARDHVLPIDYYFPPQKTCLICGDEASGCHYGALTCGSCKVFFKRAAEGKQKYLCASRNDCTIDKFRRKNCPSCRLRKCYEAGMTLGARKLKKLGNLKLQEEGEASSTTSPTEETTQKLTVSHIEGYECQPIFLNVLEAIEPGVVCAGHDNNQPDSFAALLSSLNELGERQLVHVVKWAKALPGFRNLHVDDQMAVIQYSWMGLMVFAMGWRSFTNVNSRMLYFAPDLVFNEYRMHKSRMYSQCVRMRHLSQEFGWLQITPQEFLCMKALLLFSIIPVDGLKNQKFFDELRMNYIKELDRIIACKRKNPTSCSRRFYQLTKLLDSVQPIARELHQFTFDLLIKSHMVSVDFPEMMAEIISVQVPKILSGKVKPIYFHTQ

Substance | enhancement of AR transactivation ([1]; COS-1 cells) | enhancement of AR transactivation ([1]; CV-1 cells) | enhancement of AR transactivation ([1]; DU145 cells, depending on the ratio of AR to ARA70) | enhancement of AR transactivation ([1]; PC-3 cells) | AR transcription activity with cotransfected coactivator [2] | effect on the transactivation of GR [3]
ARA70: ligand-enhanced AR coregulator, full length ARA70 | 8 fold | 8 fold | 8-10 fold | 6 fold | 36 fold | –
SV: supervillin, 205 kDa actin binding protein; bovine SV (a.a. 1-1792) used in reporter assays | – | – | – | – | – | less enhancement effect
